The source of these data is PubChem BioAssay (NCI).

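Interpolation was linear, between the two tested concentrations surrounding the appropriate level; five concentrations were tested over 48 hours in 96-well plates. Here, GI50 denotes the concentration required for 50% inhibition of growth. At the TGI there is no net growth.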 A value given as a limit tells only on which side of the number the result lay.

Test systems include OVCAR-8 ovarian; MALME-3M melanoma; IGROV1 ovarian; OVCAR-3 ovarian; K-562 leukemia; UACC-62 melanoma; SK-MEL-2 melanoma; UO-31 renal.
Test in all cases: NCI anticancer screen, dose series, 48 h

As to `O=C(Nc1cc(Cl)ccc1Cl)c1cc2ccccc2oc1=O`, the TGI with OVCAR-8 ovarian is over 100 µM; with MALME-3M melanoma, 90.3 µM; in the experiment with IGROV1 ovarian it was over 100 µM; in the experiment on OVCAR-3 ovarian it was over 100 µM; with K-562 leukemia it was over 100 µM; in the experiment on UACC-62 melanoma, over 100 µM. This compound also gave a TGI with SK-MEL-2 melanoma of over 100 µM.
Take `CCc1cccc(CC)c1NC1=CC(=O)C(=O)c2ccccc21`: the TGI in the experiment on OVCAR-8 ovarian was 36.7 µM; in the experiment with MALME-3M melanoma, 31.9 µM; in the experiment with IGROV1 ovarian, 28.9 µM; in the experiment with UO-31 renal, 46.9 µM; with OVCAR-3 ovarian, 8.39 µM; in the experiment with K-562 leukemia, over 100 µM. In addition, the TGI is 30.1 µM with UACC-62 melanoma and 35.9 µM in the experiment on SK-MEL-2 melanoma.
Consider `CCCCCCCCCCCCCCCCCCCCCCC(=O)N[C@H]1CCc2cc(OC)c(OC)c(OC)c2-c2ccc(SC)c(=O)cc21`, for which the TGI in the experiment with OVCAR-8 ovarian is 85.6 µM; with MALME-3M melanoma, over 100 µM; in the experiment on IGROV1 ovarian it was over 100 µM; in the experiment with UO-31 renal, over 100 µM; with OVCAR-3 ovarian it was 60.4 µM; in the experiment on K-562 leukemia, over 100 µM. In the experiment with UACC-62 melanoma, this compound returned a TGI of over 100 µM.
For `C=CC(C)(C)[C@@]12CC3C(=O)N[C@@H](Cc4ccccc4)C(=O)N3[C@@H]1N(C(C)=O)c1ccccc12` (stereo not given in full), the TGI in the experiment on OVCAR-8 ovarian, in the experiment with MALME-3M melanoma, with IGROV1 ovarian, with UO-31 renal, in the experiment with OVCAR-3 ovarian and in the experiment with K-562 leukemia was over 100 µM throughout. In addition, the TGI in the experiment with UACC-62 melanoma and in the experiment on SK-MEL-2 melanoma was over 100 µM in each case.
For `CC(=O)NNc1nc(C)c(C(=O)NNC(=O)C(=O)Nc2ccc(C)cc2[N+](=O)[O-])s1`, the TGI with OVCAR-8 ovarian, in the experiment on MALME-3M melanoma, with IGROV1 ovarian, in the experiment on UO-31 renal, in the experiment with OVCAR-3 ovarian and in the experiment with K-562 leukemia was over 100 µM throughout. Moreover, the TGI in the experiment on UACC-62 melanoma and in the experiment with SK-MEL-2 melanoma was over 100 µM throughout.
In the case of `CC(=O)Nc1ccc(/C=C/C(=O)c2sc(-n3nc(-c4ccccc4)cc3-c3ccccc3)nc2C)cc1`, the GI50 with OVCAR-8 ovarian, with MALME-3M melanoma, in the experiment with IGROV1 ovarian, in the experiment with UO-31 renal, in the experiment with OVCAR-3 ovarian and in the experiment with K-562 leukemia was over 100 µM throughout. Further, the GI50 with UACC-62 melanoma and in the experiment on SK-MEL-2 melanoma was over 100 µM throughout. Further, the TGI in the experiment with OVCAR-8 ovarian, with MALME-3M melanoma, in the experiment on IGROV1 ovarian, in the experiment on UO-31 renal, with OVCAR-3 ovarian and in the experiment with K-562 leukemia was over 100 µM in each case. Also, the TGI in the experiment on UACC-62 melanoma and in the experiment on SK-MEL-2 melanoma was over 100 µM each time.
As for `N#Cc1cccc(C2SCc3nc4ccccc4n32)c1` (stereo not given), the TGI with OVCAR-8 ovarian, in the experiment with MALME-3M melanoma, with IGROV1 ovarian, in the experiment with UO-31 renal, in the experiment with K-562 leukemia and in the experiment with UACC-62 melanoma was over 100 µM in each case. In the experiment with SK-MEL-2 melanoma, this compound yielded a TGI of over 100 µM.
As to `O=C(CC1(O)C(=O)Nc2ccc(Br)cc21)c1cccc([N+](=O)[O-])c1` (stereo not given), the TGI with OVCAR-8 ovarian, with MALME-3M melanoma, in the experiment with UO-31 renal, with OVCAR-3 ovarian, in the experiment on K-562 leukemia and in the experiment with SK-MEL-2 melanoma was over 100 µM in each case.
For the compound `COC(=O)N1C=Cc2c(c(C)c3c([nH]c4ccccc43)c2C)C1C` (stereo not given), the TGI is 39.8 µM in the experiment on OVCAR-8 ovarian; 36.3 µM in the experiment on MALME-3M melanoma; 48.7 µM with IGROV1 ovarian; 34.2 µM in the experiment with UO-31 renal; 30.9 µM in the experiment on OVCAR-3 ovarian; 37.7 µM with K-562 leukemia. For the same compound, the figures for the TGI in the experiment on UACC-62 melanoma and in the experiment with SK-MEL-2 melanoma were 34.9 µM and 34 µM, respectively.
Consider `Cc1nc2ccccc2c(=O)n1/N=C(\N=Nc1ccc(Cl)cc1)c1ccc(N(C)C)cc1`, for which the TGI in the experiment with OVCAR-8 ovarian, in the experiment on IGROV1 ovarian, with UO-31 renal, with K-562 leukemia and in the experiment with UACC-62 melanoma was over 100 µM throughout.
For the compound `O=c1ccn([C@@H]2C[C@H](CO)CS(=O)C2)c(=O)[nH]1` (stereo not given in full), the TGI with OVCAR-8 ovarian, in the experiment with MALME-3M melanoma, in the experiment on IGROV1 ovarian, in the experiment with UO-31 renal, in the experiment on OVCAR-3 ovarian and in the experiment with K-562 leukemia was over 100 µM throughout. Further, the TGI in the experiment with UACC-62 melanoma and with SK-MEL-2 melanoma was over 100 µM throughout.
With `BrC(/C=N/Nc1nnc(-c2ccccc2)c(-c2ccccc2)n1)C(Br)c1ccccc1` (stereo not given), the TGI with OVCAR-8 ovarian was over 100 µM; in the experiment on MALME-3M melanoma, over 100 µM; in the experiment on IGROV1 ovarian it was over 100 µM; with UO-31 renal, 60.5 µM; in the experiment on OVCAR-3 ovarian it was over 100 µM; in the experiment with K-562 leukemia, over 100 µM. Further, the TGI came out at 53.5 µM in the experiment on UACC-62 melanoma and 73.2 µM in the experiment with SK-MEL-2 melanoma.
With `O=P(c1ccccc1)(c1ccccc1)C1CC=C2CCCCCC2C1` (stereo not given), the TGI with OVCAR-8 ovarian was 99.2 µM; in the experiment with MALME-3M melanoma, over 100 µM; in the experiment on IGROV1 ovarian it was over 100 µM; in the experiment with UO-31 renal it was 52.7 µM; in the experiment on OVCAR-3 ovarian, 50 µM; with K-562 leukemia, 76.9 µM. For the same compound, the TGI was determined as 69.6 µM in the experiment on UACC-62 melanoma and 81.6 µM in the experiment on SK-MEL-2 melanoma.
On to `COc1ccc(Cc2c3cc(OC)c(OC)cc3cc[n+]2C)cc1`, for which the TGI in the experiment with OVCAR-8 ovarian was over 48.6 µM; with MALME-3M melanoma, over 60.3 µM; in the experiment on IGROV1 ovarian it was over 69.4 µM; in the experiment with UO-31 renal, over 51.4 µM; in the experiment with OVCAR-3 ovarian, 36.2 µM; in the experiment on K-562 leukemia, over 100 µM. Moreover, the TGI was over 50 µM with UACC-62 melanoma and over 45.8 µM with SK-MEL-2 melanoma.
Take `C#CC[C@]12CC(=O)CC[C@H]1CC1(C2)OCCO1`: the TGI with OVCAR-8 ovarian, in the experiment with MALME-3M melanoma, in the experiment on IGROV1 ovarian, in the experiment with UO-31 renal, in the experiment on OVCAR-3 ovarian and in the experiment with K-562 leukemia was over 100 µM throughout. For the same compound, the TGI with UACC-62 melanoma and in the experiment on SK-MEL-2 melanoma was over 100 µM each time.
